PubChem BioAssay (NCI)
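1) Cells in 96-well plates. 2) Compound, 48 h, 5 concentrations. 3) Linear interpolation between surrounding doses. 4) Unreached endpoint = highest concentration. TGI: concentration producing complete growth inhibition.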

What was measured:
Assay in all cases: NCI anticancer screen, dose series, 48 h
[1] = system: NCI-H460 lung
[2] = system: BT-549 breast
[3] = system: HOP-92 NSCLC
[4] = system: NCI-H522 lung
[5] = system: A549 NSCLC
[6] = system: RPMI-8226 leukemia
[7] = system: MDA-MB-435
[8] = system: HOP-62 NSCLC
[9] = system: HS 578T breast
[10] = system: ACHN renal
[11] = system: MDA-MB-231 breast
[12] = system: HCT-15 colon
[13] = system: MOLT-4 leukemia
[14] = system: OVCAR-8 ovarian
[15] = system: CCRF-CEM leukemia
[16] = system: SK-OV-3 ovarian
[17] = system: RXF 393 renal
[18] = system: SF-295 CNS
[19] = system: HCC-2998 colon
[20] = system: OVCAR-5 ovarian
[21] = system: SK-MEL-5 melanoma
[22] = system: OVCAR-3 ovarian
[23] = system: K-562 leukemia
[24] = system: SW-620 colon
[25] = system: MDA-N
[26] = system: T-47D breast
[27] = system: IGROV1 ovarian
[28] = system: UO-31 renal
[29] = system: CAKI-1 renal
[30] = system: M14 melanoma
[31] = system: NCI-H23 lung
[32] = system: PC-3 prostate
[33] = system: UACC-257 melanoma
[34] = system: SK-MEL-2 melanoma
[35] = system: SN12C renal
[36] = system: EKVX NSCLC
[37] = system: SF-268 CNS
[38] = system: SK-MEL-28 melanoma
[39] = system: OVCAR-4 ovarian
[40] = system: TK-10 renal
[41] = system: 786-0 renal
[42] = system: DU-145 prostate
[43] = system: NCI/ADR-RES ovarian
[44] = system: KM12 colon
[45] = system: COLO 205 colon
[46] = system: A498 renal
[47] = system: HT29 colon
[48] = system: HL-60(TB) leukemia
[49] = system: SR leukemia
[50] = system: MALME-3M melanoma
[51] = system: SNB-19 CNS
[52] = system: LOX IMVI melanoma
[53] = system: MCF7 breast
[54] = system: NCI-H226 lung
[55] = system: U251 CNS
[56] = system: UACC-62 melanoma
[57] = system: HCT-116 colon
[58] = system: SF-539 CNS
[59] = system: SNB-75 CNS

O=C(COC(c1ccc(F)cc1)c1ccc(F)cc1)N1CCN(CCCc2ccccc2)CC1
TGI [1]: 13.5 µM
TGI [2]: 13.7 µM
TGI [3]: 8.02 µM
TGI [4]: 18.6 µM
TGI [5]: 15.2 µM
TGI [6]: 26.3 µM
TGI [7]: 13 µM
TGI [8]: 19.4 µM
TGI [9]: 59.6 µM
TGI [10]: 13.7 µM
TGI [11]: 11.3 µM
TGI [12]: 11.4 µM
TGI [13]: > 100 µM
TGI [14]: 14.6 µM
TGI [15]: > 100 µM
TGI [16]: 21.5 µM
TGI [17]: 8.1 µM
TGI [18]: 13 µM
TGI [19]: 13 µM
TGI [20]: 14.7 µM
TGI [21]: 6.9 µM
TGI [22]: 13.7 µM
TGI [23]: > 100 µM
TGI [24]: > 100 µM
TGI [25]: 13.4 µM
TGI [26]: 9.35 µM
TGI [27]: 19 µM
TGI [28]: 3.56 µM
TGI [29]: 4.15 µM
TGI [30]: 16.2 µM
TGI [31]: 7.91 µM
TGI [32]: 11.9 µM
TGI [33]: 11.3 µM
TGI [34]: 15.4 µM
TGI [35]: 11.3 µM
TGI [36]: 17.3 µM
TGI [37]: 16.4 µM
TGI [38]: > 100 µM
TGI [39]: 12.6 µM
TGI [40]: 17.8 µM
TGI [41]: 14.1 µM
TGI [42]: 14.5 µM
TGI [43]: 12.8 µM
TGI [44]: 15.9 µM
TGI [45]: 3.36 µM
TGI [46]: 12.6 µM
TGI [47]: 11.2 µM
TGI [48]: 14.1 µM
TGI [49]: 18.6 µM
TGI [50]: 17.4 µM
TGI [51]: 15.2 µM
TGI [52]: 16.2 µM
TGI [53]: 12.6 µM
TGI [54]: 8.73 µM
TGI [55]: 14.8 µM
TGI [56]: 16.5 µM
TGI [57]: 10.5 µM
TGI [58]: 17.3 µM

O=c1oc2ccccc2c(-c2ccc(O)cc2)c1Oc1ccc(Cl)cc1
TGI [59]: 85.7 µM
TGI [1]: 54.4 µM
TGI [2]: 84.3 µM
TGI [3]: 52.9 µM
TGI [4]: 43.7 µM
TGI [5]: 47.3 µM
TGI [6]: 52.4 µM
TGI [7]: > 100 µM
TGI [9]: > 100 µM
TGI [10]: 97.2 µM
TGI [11]: 90.6 µM
TGI [12]: > 100 µM
TGI [14]: 69.7 µM
TGI [15]: 52.9 µM
TGI [17]: 57.8 µM
TGI [18]: 60.6 µM
TGI [19]: 46.1 µM
TGI [20]: > 100 µM
TGI [21]: 45.3 µM
TGI [22]: 39.7 µM
TGI [23]: 72.1 µM
TGI [24]: > 100 µM
TGI [25]: 67.6 µM
TGI [26]: > 100 µM
TGI [27]: 60.8 µM
TGI [28]: 51.9 µM
TGI [29]: > 100 µM
TGI [30]: 39 µM
TGI [31]: 68.6 µM
TGI [32]: 97.1 µM
TGI [33]: 83.8 µM
TGI [34]: 54.2 µM
TGI [35]: 79.7 µM
TGI [36]: 68.7 µM
TGI [37]: 75.9 µM
TGI [38]: > 100 µM
TGI [39]: > 100 µM
TGI [40]: 62.1 µM
TGI [41]: 73 µM
TGI [42]: > 100 µM
TGI [43]: 82.3 µM
TGI [44]: > 100 µM
TGI [45]: 56.2 µM
TGI [46]: 77.2 µM
TGI [47]: 64.1 µM
TGI [49]: 51.9 µM
TGI [50]: 55 µM
TGI [51]: 67 µM
TGI [52]: 62 µM
TGI [53]: 72.3 µM
TGI [54]: 86.3 µM
TGI [55]: 61.4 µM
TGI [56]: 63.3 µM
TGI [57]: 35.6 µM
TGI [58]: > 100 µM

CN(C)C/C=C(/c1ccc(Br)cc1)c1cccnc1
TGI [59]: > 100 µM
TGI [1]: > 100 µM
TGI [2]: > 100 µM
TGI [3]: > 100 µM
TGI [4]: > 100 µM
TGI [5]: > 100 µM
TGI [6]: > 100 µM
TGI [7]: > 100 µM
TGI [8]: > 100 µM
TGI [9]: > 100 µM
TGI [10]: > 100 µM
TGI [11]: > 100 µM
TGI [12]: > 100 µM
TGI [13]: > 100 µM
TGI [14]: > 100 µM
TGI [16]: > 100 µM
TGI [17]: > 100 µM
TGI [18]: 63.5 µM
TGI [19]: 29.8 µM
TGI [20]: > 100 µM
TGI [21]: 45.5 µM
TGI [22]: > 100 µM
TGI [23]: > 100 µM
TGI [24]: > 100 µM
TGI [25]: > 100 µM
TGI [26]: > 100 µM
TGI [27]: > 100 µM
TGI [28]: > 100 µM
TGI [29]: > 100 µM
TGI [30]: 37.2 µM
TGI [31]: > 100 µM
TGI [32]: > 100 µM
TGI [33]: 35.3 µM
TGI [34]: 37.6 µM
TGI [35]: > 100 µM
TGI [36]: > 100 µM
TGI [37]: > 100 µM
TGI [38]: 34.1 µM
TGI [39]: > 100 µM
TGI [40]: > 100 µM
TGI [41]: > 100 µM
TGI [42]: > 100 µM
TGI [43]: > 100 µM
TGI [44]: > 100 µM
TGI [45]: 32.4 µM
TGI [46]: 57.8 µM
TGI [47]: > 100 µM
TGI [48]: 0.0516 µM
TGI [49]: > 100 µM
TGI [50]: 44.1 µM
TGI [51]: > 100 µM
TGI [53]: > 100 µM
TGI [54]: > 100 µM
TGI [55]: > 100 µM
TGI [56]: 39.1 µM
TGI [57]: > 100 µM
TGI [58]: > 100 µM

Nc1cc(OCc2ccccc2)c(OCc2ccccc2)cc1C=O
TGI [59]: > 100 µM
TGI [1]: 52.8 µM
TGI [2]: 37.3 µM
TGI [4]: 24.5 µM
TGI [5]: > 100 µM
TGI [6]: > 100 µM
TGI [7]: > 100 µM
TGI [9]: > 100 µM
TGI [10]: 93.5 µM
TGI [11]: > 100 µM
TGI [12]: > 100 µM
TGI [13]: > 100 µM
TGI [14]: > 100 µM
TGI [15]: > 100 µM
TGI [16]: > 100 µM
TGI [18]: 70 µM
TGI [19]: 34.5 µM
TGI [20]: > 100 µM
TGI [21]: 93.1 µM
TGI [23]: > 100 µM
TGI [24]: > 100 µM
TGI [25]: > 100 µM
TGI [26]: > 100 µM
TGI [27]: > 100 µM
TGI [32]: > 100 µM
TGI [33]: > 100 µM
TGI [34]: > 100 µM
TGI [35]: > 100 µM
TGI [36]: > 100 µM
TGI [37]: > 100 µM
TGI [38]: > 100 µM
TGI [40]: 67.8 µM
TGI [41]: 55.4 µM
TGI [42]: > 100 µM
TGI [43]: > 100 µM
TGI [44]: 92.2 µM
TGI [45]: 77.3 µM
TGI [46]: 44.2 µM
TGI [47]: > 100 µM
TGI [48]: 40 µM
TGI [49]: > 100 µM
TGI [51]: > 100 µM
TGI [52]: 77.2 µM
TGI [53]: > 100 µM
TGI [54]: > 100 µM
TGI [55]: 93.9 µM
TGI [57]: 96.8 µM
TGI [58]: 31.7 µM
